Reference: patent publication US10131652B2, “Pyrimidinyloxy benzene derivatives as herbicides” (E. I. DU PONT DE NEMOURS AND COMPANY, priority 2014, dated 2018)

Legend:
Format in all cases: in vivo
rice (Oryza sativa) = assay: Test C flooded paddy test plant response; conditions: Flood, 250 g ai/ha; scale of 0 to 100 where 0 is no effect and 100 is complete control; 13 to 15 days
How it was run: (§1)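 Plants grown to the 2-leaf stage; pots flooded to 3 cm above soil, test compounds applied directly to paddy water, depth maintained throughout. Greenhouse for 13 to 15 days, then visual rating versus controls on a 0–100 scale (0 no effect, 100 complete control).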

[1] = system: ducksalad (Heteranthera limosa); assay: Test C flooded paddy test plant response; conditions: Flood, 250 g ai/ha; scale of 0 to 100 where 0 is no effect and 100 is complete control; 13 to 15 days
How it was run: as §1

[2] = system: small-flower umbrella sedge (Cyperus difformis); assay: Test C flooded paddy test plant response; conditions: Flood, 250 g ai/ha; scale of 0 to 100 where 0 is no effect and 100 is complete control; 13 to 15 days
How it was run: as §1

[3] = system: barnyardgrass (Echinochloa crus-galli); assay: Test C flooded paddy test plant response; conditions: Flood, 250 g ai/ha; scale of 0 to 100 where 0 is no effect and 100 is complete control; 13 to 15 days
How it was run: as §1

[4] = system: yellow nutsedge (Cyperus esculentus); assay: Test D pre-/postemergence plant response
How it was run: (§2)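 Plants are held in a greenhouse 13 to 15 days after spraying, then injury is rated by eye relative to controls on a 0 to 100 scale. Treatments are preemergence on freshly sown loam/sand pots or postemergence at 1- to 4-leaf stage in peat-based medium; surfactant-containing solvent formulation.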

[5] = system: galium (catchweed bedstraw, Galium aparine); assay: Test D pre-/postemergence plant response
How it was run: as §2

[6] = system: ragweed (common ragweed, Ambrosia elatior); assay: Test D pre-/postemergence plant response
How it was run: as §2

[7] = system: johnsongrass (Sorghum halepense); assay: Test D pre-/postemergence plant response
How it was run: as §2

[8] = system: winter wheat (Triticum aestivum); assay: Test D pre-/postemergence plant response
How it was run: as §2

[9] = system: oilseed rape (Brassica napus); assay: Test D pre-/postemergence plant response
How it was run: as §2

corn (Zea mays) = assay: Test B pre-/postemergence plant response; conditions: 0 to 100 scale, 0 no effect, 100 complete control
How it was run: (§3)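 Ratings reflect visual injury versus untreated controls, from 0 for no effect to 100 for complete control, assessed roughly 10 days after treatment. Formulation: non-phytotoxic solvent mix with surfactant; pre- and postemergence sprays on plants grown in loam soil and sand.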

[10] = system: wheat (Triticum aestivum); assay: Test B pre-/postemergence plant response; conditions: 0 to 100 scale, 0 no effect, 100 complete control
How it was run: as §3

[11] = system: pigweed (Amaranthus retroflexus); assay: Test B pre-/postemergence plant response
How it was run: as §3

[12] = system: barnyardgrass (Echinochloa crus-galli); assay: Test B pre-/postemergence plant response
How it was run: as §3

[13] = system: giant foxtail (Setaria faberii); assay: Test B pre-/postemergence plant response
How it was run: as §3

[14] = Postemergence, 16 g ai/ha, scale 0 to 100 (0 no effect, 100 complete control)
[15] = Postemergence, 31 g ai/ha, scale 0 to 100 (0 no effect, 100 complete control)
[16] = Postemergence, 62 g ai/ha, scale 0 to 100, 0 no effect, 100 complete control
[17] = Postemergence, 125 g ai/ha, scale 0 to 100, 0 no effect, 100 complete control
[18] = Preemergence, 16 g ai/ha, scale 0 to 100 (0 no effect, 100 complete control)
[19] = Preemergence, 31 g ai/ha, scale 0 to 100 (0 no effect, 100 complete control)
[20] = Preemergence, 62 g ai/ha, scale 0 to 100 (0 no effect, 100 complete control)
[21] = 31 g ai/ha, Postemergence, 0 to 100 scale, 0 no effect, 100 complete control
[22] = 31 g ai/ha, Preemergence, 0 to 100 scale where 0 is no effect and 100 is complete control
[23] = 125 g ai/ha, postemergence, 0 to 100 scale, 0 no effect, 100 complete control
[24] = Preemergence, 125 g ai/ha, 0 to 100 scale where 0 is no effect and 100 is complete control

Fc1ccc(Oc2ncc(Cl)cn2)c(-c2cc(C(F)F)on2)c1F [Compound 113]
Rice plant response rating (rice (Oryza sativa)): 15 | Ducksalad plant response rating [1]: 95 | Sedge, Umbrella plant response rating [2]: 95 | Barnyardgrass plant response rating [3]: 0 | Nutsedge, Yellow plant response rating [4, 14]: 5 | Nutsedge, Yellow plant response rating [4, 15]: 5 | Plant response rating, Nutsedge, Yellow [4, 16]: 5 | Plant response rating, Nutsedge, Yellow [4, 17]: 15 | Plant response rating (scale 0 to 100), Nutsedge, Yellow ([4]; Preemergence, 125 g ai/ha): 60 | Plant response rating, Nutsedge, Yellow [4, 18]: 0 | Plant response rating, Nutsedge, Yellow [4, 19]: 10 | Plant response rating, Nutsedge, Yellow [4, 20]: 15 | Galium plant response rating [5, 14]: 80 | Galium plant response rating [5, 15]: 80 | Plant response rating, Galium [5, 16]: 90 | Plant response rating, Galium [5, 17]: 90 | Plant response rating (scale 0 to 100), Galium ([5]; Preemergence, 125 g ai/ha): 90 | Plant response rating, Galium [5, 18]: 90 | Plant response rating, Galium [5, 19]: 90 | Plant response rating, Galium [5, 20]: 98 | Ragweed plant response rating [6, 14]: 80 | Ragweed plant response rating [6, 15]: 60 | Plant response rating, Ragweed [6, 16]: 90 | Plant response rating, Ragweed [6, 17]: 90 | Plant response rating (scale 0 to 100), Ragweed ([6]; Preemergence, 125 g ai/ha): 90 | Plant response rating, Ragweed [6, 18]: 40 | Plant response rating, Ragweed [6, 19]: 55 | Plant response rating, Ragweed [6, 20]: 85 | Johnsongrass plant response rating [7, 14]: 5 | Johnsongrass plant response rating [7, 15]: 5 | Plant response rating, Johnsongrass [7, 16]: 5 | Plant response rating, Johnsongrass [7, 17]: 10 | Plant response rating (scale 0 to 100), Johnsongrass ([7]; Preemergence, 125 g ai/ha): 100 | Plant response rating, Johnsongrass [7, 18]: 10 | Plant response rating, Johnsongrass [7, 19]: 70 | Plant response rating, Johnsongrass [7, 20]: 90 | Wheat plant response rating [8, 14]: 0 | Wheat plant response rating [8, 15]: 0 | Plant response rating, Wheat [8, 16]: 5 | Plant response rating, Wheat [8, 17]: 5 | Plant response rating (scale 0 to 100), Wheat ([8]; Preemergence, 125 g ai/ha): 20 | Plant response rating, Wheat [8, 18]: 0 | Plant response rating, Wheat [8, 19]: 5 | Plant response rating, Wheat [8, 20]: 10 | Oilseed Rape plant response rating [9, 14]: 80 | Oilseed Rape plant response rating [9, 15]: 50 | Plant response rating, Oilseed Rape [9, 16]: 90 | Plant response rating, Oilseed Rape [9, 17]: 90 | Plant response rating (scale 0 to 100), Oilseed Rape ([9]; Preemergence, 125 g ai/ha): 100 | Plant response rating, Oilseed Rape [9, 18]: 98 | Plant response rating, Oilseed Rape [9, 19]: 100 | Plant response rating, Oilseed Rape [9, 20]: 100 | Plant response rating, Corn (corn (Zea mays); 31 g ai/ha, Postemergence): 10 | Plant response rating, Corn (corn (Zea mays); 125 g ai/ha, postemergence): 30 | Plant response rating, Wheat ([10]; 31 g ai/ha, Postemergence): 0 | Plant response rating, Wheat ([10]; 125 g ai/ha, postemergence): 10 | Plant response rating, Pigweed [11, 21]: 100 | Plant response rating, Pigweed [11, 22]: 100 | Plant response rating, Pigweed [11, 23]: 100 | Plant response rating, Barnyardgrass [12, 21]: 60 | Plant response rating, Barnyardgrass [12, 22]: 70 | Plant response rating, Barnyardgrass [12, 23]: 90 | Plant response rating, Barnyardgrass [12, 24]: 100 | Plant response rating, Foxtail, Giant [13, 21]: 60 | Plant response rating, Foxtail, Giant [13, 22]: 90 | Plant response rating, Foxtail, Giant [13, 23]: 90 | Plant response rating, Foxtail, Giant [13, 24]: 100
